Patent publication US9908886B2 (Agency for Science, Technology and Research, priority 2012, dated 2018)

Key:
MNK2 = MNK2 (Homo sapiens (Human), UniProt Q9HBH9); assay: In vitro MNK kinase assay (Caliper LabChip mobility shift); format: biochemical; settings: enzymatic, 250 μM ATP; read-out: IC50 Mnk2
MNK1 = MNK1 (Homo sapiens, UniProt Q9BUB5); assay: as above; format: biochemical; settings: enzymatic, 1.2 mM ATP; read-out: IC50 Mnk1

MNK2, sequence (Q9HBH9 84-388): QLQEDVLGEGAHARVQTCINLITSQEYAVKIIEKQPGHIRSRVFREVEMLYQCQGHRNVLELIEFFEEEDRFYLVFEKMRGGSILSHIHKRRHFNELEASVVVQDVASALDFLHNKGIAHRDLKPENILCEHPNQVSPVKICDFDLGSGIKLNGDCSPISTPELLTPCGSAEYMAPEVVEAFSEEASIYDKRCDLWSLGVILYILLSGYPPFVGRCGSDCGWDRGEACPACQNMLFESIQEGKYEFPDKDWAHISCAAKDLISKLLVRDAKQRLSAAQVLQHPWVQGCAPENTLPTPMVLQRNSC

Structure (SMILES)	IC50 (MNK2) [nM]	IC50 (MNK1) [nM]
N#Cc1ccc(-c2cnc3ccc(-c4ccc(C(=O)N5CCC6(CCCCN6)CC5)cc4)cn23)cc1 [Example 117, 4-(6-(4-(1,9-diazaspiro[5.5]undecane-9-carbonyl)phenyl)imidazo[1,2-a]pyridin-3-yl)benzonitrile]	< 100	< 100
CC(=O)N1CCCCC12CCN(C(=O)c1ccc(-c3ccc4ncc(-c5ccc(C#N)cc5)n4c3)cc1)CC2 [Example 118, 4-(6-(4-(1-acetyl-1,9-diazaspiro[5.5]undecane-9-carbonyl)phenyl)imidazo[1,2-a]pyridin-3-yl)benzonitrile]	< 100	< 100
CN1CCCCC12CCN(C(=O)c1ccc(-c3ccc4ncc(-c5ccc(C#N)cc5)n4c3)cc1)CC2 [Example 119, 4-(6-(4-(1-methyl-1,9-diazaspiro[5.5]undecane-9-carbonyl)phenyl)imidazo[1,2-a]pyridin-3-yl)benzonitrile]	< 100	< 100
CN(C(=O)c1ccc(-c2ccc3ncc(-c4ccc(C#N)cc4)n3c2)cc1)c1ccncc1 [Example 122, 4-(3-(4-cyanophenyl)imidazo[1,2-a]pyridin-6-yl)-N-methyl-N-(pyridin-4-yl)benzamide]	< 1000	< 1000
N#Cc1ccc(-c2cnc3ccc(-c4ccc(C(=O)N5CCC(CN)CC5)cc4)cn23)cc1 [Example 123, 4-(6-(4-(4-(aminomethyl)piperidine-1-carbonyl)phenyl)imidazo[1,2-a]pyridin-3-yl)benzonitrile]	< 100	< 100
N#Cc1ccc(-c2cnc3ccc(-c4ccc(C(=O)N5CCC(CCN)CC5)cc4)cn23)cc1 [Example 124, 4-(6-(4-(4-(2-aminoethyl)piperidine-1-carbonyl)phenyl)imidazo[1,2-a]pyridin-3-yl)benzonitrile]	< 100	< 100
N#Cc1ccc(-c2cnc3ccc(-c4ccc(C(=O)N5CCN(C(=O)c6ccccc6)CC5)cc4)cn23)cc1 [Example 126, 4-(6-(4-(4-benzoylpiperazine-1-carbonyl)phenyl)imidazo[1,2-a]pyridin-3-yl)benzonitrile]	< 100	< 100
N#Cc1ccc(-c2cnc3ccc(-c4ccc(C(=O)N5CCN(Cc6ccc(C(N)=O)cc6)CC5)cc4)cn23)cc1 [Example 129, 4-((4-(4-(3-(4-cyanophenyl)imidazo[1,2-a]pyridin-6-yl)benzoyl)piperazin-1-yl)methyl)benzamide]	< 100	< 1000
CN1CCN(C(=O)c2ccc(-c3ccc4ncc(-c5ccc(C#N)cc5)n4c3)cc2)CC1=O [Example 130, 4-(6-(4-(4-methyl-3-oxopiperazine-1-carbonyl)phenyl)imidazo[1,2-a]pyridin-3-yl)benzonitrile]	< 100	< 100
N#Cc1ccc(-c2cnc3ccc(-c4ccc(C(=O)N5CCC(N6CCOCC6)CC5)cc4)cn23)cc1 [Example 134, 4-(6-(4-(4-morpholinopiperidine-1-carbonyl)phenyl)imidazo[1,2-a]pyridin-3-yl)benzonitrile]	< 100	< 100
Cc1nnc(C2(C)CCN(C(=O)c3ccc(-c4ccc5ncc(-c6ccc(C#N)cc6)n5c4)cc3)CC2)o1 [Example 135, 4-(6-(4-(4-methyl-4-(5-methyl-1,3,4-oxadiazol-2-yl)piperidine-1-carbonyl)phenyl)imidazo[1,2-a]pyridin-3-yl)benzonitrile]	< 100	< 100
Cc1cc2ncc(-c3ccc(C#N)cc3)n2cc1-c1ccc(C(=O)N2CCC(C)(N)CC2)cc1 [Example 137, 4-(6-(4-(4-amino-4-methylpiperidine-1-carbonyl)phenyl)-7-methylimidazo[1,2-a]pyridin-3-yl)benzonitrile]	< 100	< 1000
Cc1cc2ncc(-c3ccc(C#N)cc3)n2cc1-c1ccc(C(=O)N2CCN(C)CC2)cc1 [Example 138, 4-(7-methyl-6-(4-(4-methylpiperazine-1-carbonyl)phenyl)imidazo[1,2-a]pyridin-3-yl)benzonitrile]	< 1000	< 1000
CN1CCN(C(=O)c2ccc(-c3ccc4ncc(-c5ccc(C#N)cc5)n4c3)c(F)c2)CC1 [Example 140, 4-(6-(2-fluoro-4-(4-methylpiperazine-1-carbonyl)phenyl)imidazo[1,2-a]pyridin-3-yl)benzonitrile]	< 100	< 100
CN1CCN(C(=O)c2ccc(-c3ccc4ncc(-c5ccc(C#N)cc5)n4c3)cc2Cl)CC1 [Example 141, 4-(6-(3-chloro-4-(4-methylpiperazine-1-carbonyl)phenyl)imidazo[1,2-a]pyridin-3-yl)benzonitrile]	< 100	< 100
CN1CCN(C(=O)c2ccc(-c3ccc4ncc(-c5ccc(C#N)cc5)n4c3)cc2F)CC1 [Example 142, 4-(6-(3-fluoro-4-(4-methylpiperazine-1-carbonyl)phenyl)imidazo[1,2-a]pyridin-3-yl)benzonitrile]	< 100	< 1000
CN1CCN(C(=O)c2ccc(-c3ccc4ncc(-c5ccc(C#N)cc5)n4c3)cc2C(F)(F)F)CC1 [Example 145, 4-(6-(4-(4-methylpiperazine-1-carbonyl)-3-(trifluoromethyl)phenyl)imidazo[1,2-a]pyridin-3-yl)benzonitrile]	< 1000	< 100

Structure (SMILES)	IC50 (MNK2) [nM]	IC50 (MNK1) [nM]
CN1CCN(C(=O)c2ccc(-c3ccc4ncc(-c5ccc(C#N)cc5)n4c3)cc2N)CC1 [Example 146, 4-(6-(3-amino-4-(4-methylpiperazine-1-carbonyl)phenyl)imidazo[1,2-a]pyridin-3-yl)benzonitrile]	< 100	< 100
CN1CCN(C(=O)c2ccc(-c3ccc4ncc(-c5ccc(C#N)cc5)n4c3)cc2N(C)C)CC1 [Example 147, 4-(6-(3-(dimethylamino)-4-(4-methylpiperazine-1-carbonyl)phenyl)imidazo[1,2-a]pyridin-3-yl)benzonitrile]	< 100	< 100
CC(=O)Nc1cc(-c2ccc3ncc(-c4ccc(C#N)cc4)n3c2)ccc1C(=O)N1CCN(C)CC1 [Example 149, N-(5-(3-(4-cyanophenyl)imidazo[1,2-a]pyridin-6-yl)-2-(4-methylpiperazine-1-carbonyl)phenyl)acetamide]	< 1000	< 1000
CNc1cc(-c2ccc3ncc(-c4ccc(C#N)cc4)n3c2)ccc1C(=O)N1CCN(C)CC1 [Example 150, 4-(6-(3-(methylamino)-4-(4-methylpiperazine-1-carbonyl)phenyl)imidazo[1,2-a]pyridin-3-yl)benzonitrile]	< 100	< 100
CNc1cc(-c2ccc3ncc(-c4ccc(C#N)cc4)n3c2)ccc1C(=O)N1CCOCC1 [Example 151, 4-(6-(3-(methylamino)-4-(morpholine-4-carbonyl)phenyl)imidazo[1,2-a]pyridin-3-yl)benzonitrile]	< 100	< 1000
CN1CCN(C(=O)c2ccc(-c3ccc4ncc(-c5ccc(C#N)cc5)n4c3)c(Cl)c2)CC1 [Example 153]	< 1000	< 1000
Cc1cc(-c2ccc3ncc(-c4ccc(C#N)cc4)n3c2)ccc1C(=O)N1CCOCC1 [Example 156]	< 1000	< 1000
CN1CCN(C(=O)c2ccc(-c3ccc4ncc(-c5ccc(C#N)cc5)n4c3)cc2OC(F)(F)F)CC1 [Example 157]	< 1000	< 1000
COc1cc(-c2ccc3ncc(-c4ccc(C#N)cc4)n3c2)ccc1C(=O)N1CCOCC1 [Example 158]	< 100	< 1000
N#Cc1ccc(-c2cnc3ccc(-c4ccc(C(=O)N5CCNCC5)c(O)c4)cn23)cc1 [Example 159, 4-(6-(3-hydroxy-4-(piperazine-1-carbonyl)phenyl)imidazo[1,2-a]pyridin-3-yl)benzonitrile]	< 100	< 100
N#Cc1ccc(-c2cnc3ccc(-c4ccc(C(=O)N5CCOCC5)c(N5CCOCC5)c4)cn23)cc1 [Example 160, 4-(6-[3-(morpholin-4-yl)-4-(morpholin-4-ylcarbonyl)phenyl]imidazo[1,2-a]pyridin-3-yl)benzonitrile]	< 100	< 100
N#Cc1ccc(-c2cnc3ccc(-c4ccc(C(=O)N5CCOCC5)c(F)c4)cn23)cc1 [Example 162, 4-(6-(3-fluoro-4-(morpholine-4-carbonyl)phenyl)imidazo[1,2-a]pyridin-3-yl)benzonitrile]	< 1000	< 1000
CC1(N2CCOCC2)CCN(C(=O)c2ccc(-c3ccc4ncc(-c5ccc(C#N)cc5)n4c3)cc2)CC1 [Example 163, 4-(6-(4-(4-methyl-4-morpholinopiperidine-1-carbonyl)phenyl)imidazo[1,2-a]pyridin-3-yl)benzonitrile]	< 100	< 100
CN1CCN(C2(C)CCN(C(=O)c3ccc(-c4ccc5ncc(-c6ccc(C#N)cc6)n5c4)cc3)CC2)CC1 [Example 164, 4-(6-(4-(4-methyl-4-(4-methylpiperazin-1-yl)piperidine-1-carbonyl)phenyl)imidazo[1,2-a]pyridin-3-0)benzonitrile]	< 100	< 100
N#Cc1ccc(-c2cnc3ccc(-c4ccc(C(=O)N5CCNCC5)cc4)cn23)cc1 [Example 165, 4-(6-(4-(piperazine-1-carbonyl)phenyl)imidazo[1,2-a]pyridin-3-yl)benzonitrile]	< 100	< 100
CC(=O)Nc1cc(-c2ccc3ncc(-c4ccc(C#N)cc4)n3c2)ccc1C(=O)N1CCOCC1 [Example 166, N-(5-(3-(4-cyanophenyl)imidazo[1,2-a]pyridin-6-yl)-2-(morpholine-4-carbonyl)phenyl)acetamide]	< 100	< 100
N#Cc1ccc(-c2cnc3ccc(-c4ccc(C(=O)N5CCOCC5)c(O)c4)cn23)cc1 [Example 167, 4-(6-(3-hydroxy-4-(morpholine-4-carbonyl)phenyl)imidazo[1,2-a]pyridin-3-yl)benzonitrile]	< 100	< 100
